Our source for the IC50 values is patent US20240261417A1, “SOS1 DEGRADING AGENT AND PREPARATION METHOD THEREFOR AND APPLICATION THEREOF” (SHANGHAI LEADINGTAC PHARMACEUTICAL CO. LTD., priority 2021, published 2024).

The test relates to KRAS G13D mutant human colorectal adenocarcinoma epithelial cells DLD-1. The experiment in a line: 3D cell proliferation inhibition assay, DLD-1. Format: cell-based. To be noted: Homo sapiens, DLD-1, 168 h, 7 days, CTG. The protocol:
Inhibition of 3D cell proliferation by the compounds was investigated on KRAS G12C mutant human non-small cell lung cancer cells NCI-H358 (ATCC or Stem Cell Bank, Chinese Academy of Sciences), KRAS G12D mutant human metastatic pancreatic adenocarcinoma cells AsPC-1 (ATCC), KRAS G12V mutant human lung adenocarcinoma cells NCI-H441 (ATCC), and KRAS G13D mutant human colorectal adenocarcinoma epithelial cells DLD-1 (ATCC). The specific procedures were as follows:
200 nL of compound solution diluted in a gradient was added to corresponding microwells of a 384-well low-adsorption microwell plate (Corning, 3657) using an Echo sonic pipetting system (Labcyte, Echo 550), so that the final concentration of the test compound in the reaction system was in a range of 20000 nM-0.008 nM. Then 40 μL of cells at a certain density were added to the corresponding microplate. In addition to test wells for the test compounds, both a DMSO control well and a medium control well were set, with the DMSO control well containing DMSO and cells and the medium well containing only medium. After sample loading, the plate cover was applied, and the 384-well low-adsorption microplate was incubated in an incubator at 37° C. with 5% carbon dioxide for 7 days. After 7 days, the microplate was taken out, and 40 μL of CTG reagent (Promega, G9683) was added to each well. The plate was incubated at room temperature for 30 min and read on a microplate reader EnVision using the chemiluminescence program. The inhibition rates of the compounds at each concentration were calculated by the formula for the percentage inhibition of cell proliferation: inhibition rate %=(mean value of DMSO control group−single concentration reading value of compound)/(mean value of DMSO control group−mean value of medium control group)×100, and then nonlinear curve fitting was performed by GraphPad Prism 8 in the logarithmic concentration-inhibition rate to obtain the IC50 values of the compounds.

The term IC50 denotes the midpoint of a concentration-inhibition curve. Low readings indicate inhibition by little substance, high ones a need for much substance. In the case of `COc1cc2nc(C)nc(N[C@H](C)c3cc(N)cc(C(F)(F)F)c3)c2cc1[C@H]1CC[C@H](C(=O)N2CCN(CCOCC3CCN(C(=O)c4ccc(Cl)c(N5CCC(=O)NC5=O)c4)CC3)CC2)CC1` [Example 33, 1-(5-(4-((2-(4-((1R,4R)-4-(4-(((R)-1-(3-amino-5-(trifluoromethyl)phenyl)ethyl)amino)-7-methoxy-2-methylquinazolin-6-yl)cyclohexane-1-carbonyl)piperazin-1-yl)ethoxy)methyl)piperidine-1-carbonyl)-2-chlorophenyl)dihydropyrimidine-2,4(1H,3H)-dione], the IC50 was 50 to 100 nM.

In turn, `COc1cc2nc(C)nc(N[C@H](C)c3cc(N)cc(C(F)(F)F)c3)c2cc1[C@H]1CC[C@H](C(=O)N2CCC(CCOCC3CCN(C(=O)c4ccc(Cl)c(N5CCC(=O)NC5=O)c4)CC3)CC2)CC1` [Example 19, 1-(5-(4-((2-(1-((1R,4R)-4-(4-(((R)-1-(3-amino-5-(trifluoromethyl)phenyl)ethyl)amino)-7-methoxy-2-methylquinazolin-6-yl)cyclohexane-1-carbonyl)piperidin-4-yl)ethoxy)methyl)piperidine-1-carbonyl)-2-chlorophenyl)dihydropyrimidine-2,4(1H,3H)-dione] came in with an IC50 of 100 to 1000 nM. In turn, `COc1cc2nc(C)nc(N[C@H](C)c3cc(N)cc(C(F)(F)F)c3)c2cc1[C@H]1CC[C@H](C(=O)N2CCN(CC3CCC4(CC3)CCN(C(=O)c3ccc(Cl)c(N5CCC(=O)NC5=O)c3)CC4)CC2)CC1` [Example 2, 1-(5-(9-((4-((1R,4R)-4-(4-(((R)-1-(3-amino-5-(trifluoromethyl)phenyl)ethyl)amino)-7-methoxy-2-methylquinazolin-6-yl)cyclohexane-1-carbonyl)piperazin-1-yl)methyl)-3-azaspiro[5.5]undecane-3-carbonyl)-2-chlorophenyl)dihydropyrimidine-2,4(1H,3H)-dione] came in with an IC50 of 15 to 30 nM. Molecule `COc1cc2nc(C)nc(N[C@H](C)c3cc(N)cc(C(F)(F)F)c3)c2cc1[C@H]1CC[C@H](C(=O)N2CCN(CCC3CCC4(CC3)CCN(C(=O)c3ccc(Cl)c(N5CCC(=O)NC5=O)c3)CC4)CC2)CC1` [Example 1, 1-(5-(9-(2-(4-((1R,4R)-4-(4-(((R)-1-(3-amino-5-(trifluoromethyl)phenyl)ethyl)amino)-7-methoxy-2-methylquinazolin-6-yl)cyclohexane-1-carbonyl)piperazin-1-yl)ethyl)-3-azaspiro[5.5]undecane-3-carbonyl)-2-chlorophenyl)dihydropyrimidine-2,4(1H,3H)-dione] came in with an IC50 of 30 to 50 nM.

Molecule `CNCc1ccccc1-c1csc([C@@H](C)Nc2nc(C)nc3cc(OC)c([C@H]4CC[C@H](C(=O)N5CCN(CC6CCC7(CC6)CCN(C(=O)c6ccc(OC)c(N8CCC(=O)NC8=O)c6)CC7)CC5)CC4)cc23)c1` [Example 73, 1-(2-methoxy-5-(9-((4-((1R,4R)-4-(7-methoxy-2-methyl-4-(((R)-1-(4-(2-((methylamino)methyl)phenyl)thien-2-yl)ethyl)amino)quinazolin-6-yl)cyclohexane-1-carbonyl)piperazin-1-yl)methyl)-3-azaspiro[5.5]undecane-3-carbonyl)phenyl)dihydropyrimidine-2,4(1H,3H)-dione] had an IC50 of 50 to 100 nM. In turn, `COc1cc2nc(C)nc(N[C@H](C)c3cccc4c3CCS4(=O)=O)c2cc1[C@H]1CC[C@H](C(=O)N2CCN(CC3CCC4(CC3)CCN(C(=O)c3ccc(Cl)c(N5CCC(=O)NC5=O)c3)CC4)CC2)CC1` [Example 10, 1-(2-chloro-5-(9-((4-((1R,4R)-4-(4-(((R)-1-(1,1-dioxo-2,3-dihydrobenzo[b]thiophen-4-yl)ethyl)amino)-7-methoxy-2-methylquinazolin-6-yl)cyclohexane-1-carbonyl)piperazin-1-yl)methyl)-3-azaspiro[5.5]undecane-3-carbonyl)phenyl)dihydropyrimidine-2,4(1H,3H)-dione] showed an IC50 of 15 to 30 nM.
